Measurements: ChEMBL document CHEMBL1201862, “PubChem BioAssay data set” (2004)
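Tested at 5 concentrations; 48 h exposure; 96-well plates; endpoints linearly interpolated, else capped at highest concentration. GI50 is the concentration that inhibits growth by half.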 Activity calls are given as the source filed them. No stated cut-off is given here; in the data, active = GI50 up to about 1.1 µM and inactive = higher.

Columns and labels:
Assay in all cases: NCI tumour cell line growth inhibition, 48 h
T47D = system: T47D
OVCAR-8 = system: OVCAR-8
SF-539 = system: SF-539
SNB-75 = system: SNB-75
OVCAR-5 = system: OVCAR-5
SK-MEL-2 = system: SK-MEL-2
HOP-92 = system: HOP-92
CCRF-CEM = system: CCRF-CEM
SNB-19 = system: SNB-19
HCT-15 = system: HCT-15
M14 = system: M14
UACC-62 = system: UACC-62
EKVX = system: EKVX
MDA-MB-435 = system: MDA-MB-435
HT-29 = system: HT-29
UO-31 = system: UO-31
DU-145 = system: DU-145
NCI-H522 = system: NCI-H522
RPMI-8226 = system: RPMI-8226
NCI-H226 = system: NCI-H226
SR = system: SR
TK-10 = system: TK-10
HOP-62 = system: HOP-62
BT-549 = system: BT-549
NCI-H460 = system: NCI-H460
HCC 2998 = system: HCC 2998
A498 = system: A498
LOX IMVI = system: LOX IMVI
SK-OV-3 = system: SK-OV-3
Malme-3M = system: Malme-3M
SF-295 = system: SF-295
NCI-H23 = system: NCI-H23
SK-MEL-5 = system: SK-MEL-5
SF-268 = system: SF-268
RXF 393 = system: RXF 393
COLO 205 = system: COLO 205
U-251 = system: U-251
IGROV-1 = system: IGROV-1
KM12 = system: KM12
MDA-N = system: MDA-N
MCF7 = system: MCF7
UACC-257 = system: UACC-257
Hs-578T = system: Hs-578T
NCI/ADR-RES = system: NCI/ADR-RES
OVCAR-4 = system: OVCAR-4
MDA-MB-231 = system: MDA-MB-231
786-0 = system: 786-0
CAKI-1 = system: CAKI-1
ACHN = system: ACHN
PC-3 = system: PC-3
MOLT-4 = system: MOLT-4
K562 = system: K562
SN12C = system: SN12C
OVCAR-3 = system: OVCAR-3
HCT-116 = system: HCT-116
SK-MEL-28 = system: SK-MEL-28
A549 = system: A549
SW-620 = system: SW-620
HL-60 = system: HL-60

## Cc1c(-c2ccccc2)oc(=O)c2ccccc12
T47D
  GI50: 30.5 µM (inactive)
OVCAR-8
  GI50: 27.1 µM (inactive)
SF-539
  GI50: 18.3 µM (inactive)
SNB-75
  GI50: 12.4 µM (inactive)
OVCAR-5
  GI50: 30.8 µM (inactive)
SK-MEL-2
  GI50: 20.4 µM (inactive)
HOP-92
  GI50: 11.8 µM (inactive)
CCRF-CEM
  GI50: 18.4 µM (inactive)
SNB-19
  GI50: 30.7 µM (inactive)
HCT-15
  GI50: 19.8 µM
M14
  GI50: 22.5 µM (inactive)
UACC-62
  GI50: 16.9 µM (inactive)
EKVX
  GI50: 18.5 µM (inactive)
MDA-MB-435
  GI50: 15.6 µM (inactive)
HT-29
  GI50: 15.5 µM (inactive)
UO-31
  GI50: 19 µM (inactive)
DU-145
  GI50: 37.7 µM (inactive)
NCI-H522
  GI50: 13.8 µM (inactive)
RPMI-8226
  GI50: 16.7 µM (inactive)
NCI-H226
  GI50: 17.5 µM (inactive)
SR
  GI50: 10.3 µM (inactive)
TK-10
  GI50: 23.6 µM (inactive)
HOP-62
  GI50: 22.1 µM (inactive)
BT-549
  GI50: 13.7 µM (inactive)
NCI-H460
  GI50: 26.4 µM (inactive)
HCC 2998
  GI50: 18.2 µM (inactive)
A498
  GI50: > 10 µM (inactive)
LOX IMVI
  GI50: 19.1 µM (inactive)
SK-OV-3
  GI50: 22.8 µM (inactive)
Malme-3M
  GI50: 21.7 µM (inactive)
SF-295
  GI50: 18.3 µM (inactive)
NCI-H23
  GI50: 24.8 µM (inactive)
SK-MEL-5
  GI50: 18.5 µM (inactive)
SF-268
  GI50: 17.4 µM (inactive)
RXF 393
  GI50: 16.5 µM (inactive)
COLO 205
  GI50: 16 µM (inactive)
U-251
  GI50: 17.9 µM (inactive)
IGROV-1
  GI50: 20.2 µM (inactive)
KM12
  GI50: 23.4 µM (inactive)
MDA-N
  GI50: 20 µM (inactive)
MCF7
  GI50: 20.4 µM (inactive)
UACC-257
  GI50: 15.5 µM (inactive)
Hs-578T
  GI50: 17.1 µM (inactive)
NCI/ADR-RES
  GI50: 28.4 µM (inactive)
OVCAR-4
  GI50: 17.5 µM (inactive)
MDA-MB-231
  GI50: 16.7 µM (inactive)
786-0
  GI50: 24.2 µM (inactive)
CAKI-1
  GI50: 22.4 µM (inactive)
ACHN
  GI50: 26.2 µM (inactive)
PC-3
  GI50: 24.4 µM (inactive)
MOLT-4
  GI50: 11 µM (inactive)
K562
  GI50: 30.2 µM (inactive)
SN12C
  GI50: 17.7 µM (inactive)
OVCAR-3
  GI50: 20.2 µM (inactive)
HCT-116
  GI50: 24.6 µM (inactive)
SK-MEL-28
  GI50: 19.4 µM (inactive)
A549
  GI50: 25 µM (inactive)

## CO[C@H]1O[C@@H]2CO[C@@H](c3ccccc3)O[C@H]2[C@@H]2CC=CCC[C@]12O
T47D
  GI50: 94 µM (inactive)
SW-620
  GI50: 54.1 µM (inactive)
OVCAR-8
  GI50: 73.1 µM (inactive)
SNB-75
  GI50: > 100 µM (inactive)
HL-60
  GI50: 24.8 µM (inactive)
OVCAR-5
  GI50: > 100 µM (inactive)
SK-MEL-2
  GI50: 65.5 µM (inactive)
HOP-92
  GI50: 49.8 µM (inactive)
CCRF-CEM
  GI50: 31 µM (inactive)
SNB-19
  GI50: > 100 µM (inactive)
HCT-15
  GI50: 39.6 µM
M14
  GI50: 72.6 µM (inactive)
UACC-62
  GI50: 63.4 µM (inactive)
EKVX
  GI50: 36.8 µM (inactive)
MDA-MB-435
  GI50: 45.7 µM (inactive)
HT-29
  GI50: 40 µM (inactive)
UO-31
  GI50: 48.2 µM (inactive)
DU-145
  GI50: > 100 µM (inactive)
NCI-H522
  GI50: 16.5 µM (inactive)
RPMI-8226
  GI50: 23.7 µM (inactive)
NCI-H226
  GI50: > 100 µM (inactive)
SR
  GI50: 30.8 µM (inactive)
TK-10
  GI50: 93.5 µM (inactive)
HOP-62
  GI50: > 100 µM (inactive)
BT-549
  GI50: 24.6 µM (inactive)
NCI-H460
  GI50: 35.7 µM (inactive)
HCC 2998
  GI50: 18.5 µM (inactive)
A498
  GI50: 32.1 µM (inactive)
LOX IMVI
  GI50: 74.3 µM (inactive)
SK-OV-3
  GI50: > 100 µM (inactive)
Malme-3M
  GI50: 12.6 µM (inactive)
SF-295
  GI50: 74.5 µM (inactive)
NCI-H23
  GI50: 36.6 µM (inactive)
SK-MEL-5
  GI50: 67.1 µM (inactive)
SF-268
  GI50: 21.8 µM (inactive)
RXF 393
  GI50: 62.1 µM (inactive)
COLO 205
  GI50: 48.5 µM (inactive)
U-251
  GI50: 60.3 µM (inactive)
IGROV-1
  GI50: 59.6 µM (inactive)
KM12
  GI50: 65.3 µM (inactive)
MDA-N
  GI50: 50.9 µM (inactive)
MCF7
  GI50: 42.6 µM (inactive)
UACC-257
  GI50: 35.6 µM (inactive)
Hs-578T
  GI50: 0.052 µM (active)
NCI/ADR-RES
  GI50: 44.4 µM (inactive)
OVCAR-4
  GI50: 57.3 µM (inactive)
MDA-MB-231
  GI50: > 100 µM (inactive)
786-0
  GI50: 61.2 µM (inactive)
CAKI-1
  GI50: > 100 µM (inactive)
ACHN
  GI50: 76.4 µM (inactive)
PC-3
  GI50: 40.9 µM (inactive)
MOLT-4
  GI50: 25.1 µM (inactive)
K562
  GI50: 33.9 µM (inactive)
SN12C
  GI50: 61.8 µM (inactive)
OVCAR-3
  GI50: 69.7 µM (inactive)
HCT-116
  GI50: 30.1 µM (inactive)
SK-MEL-28
  GI50: > 100 µM (inactive)
A549
  GI50: 59.8 µM (inactive)
